The values below come from patent US20240301408A1, “MICRORNA 195 COMPOSITIONS AND METHODS FOR TREATING COGNITIVE IMPAIRMENT” (UNITED STATES GOVERNMENT AS REPRESENTED BY THE DEPARTMENT …, priority 2021, published 2024).

Data set [1] relates to ApoE4+/+ FAD mice. As to the kind of experiment: novel object recognition (NOR) after hippocampal AAV2 injection, ApoE KI mice with 5xFAD background (EFAD). In kind it is in vivo, mouse. Particulars: male ApoE4+/+ FAD mice. From the text: Animal models. Human ApoE4^+/+ or ApoE3^+/+ knock-in (KI) mouse models without (Grootendorst J et al., Behavioural brain research 2005, Rodriguez G A et al., Learn Mem 2013, and Wang C et al., Neurobiology of disease 2005) or with 5×FAD background (Balu D et al., Neurosci Lett 2019, and Tai L M et al., J Lipid Res 2017) were genotyped (Zhong L et al., Mol Neurodegener 2016). Sex as a biological variable was taken into considerations with inclusion of both male and female mice in the experiments.
Stereotaxic injection and behavior studies. Eight to nine weeks old male and female ApoE3^+/+ and ApoE4^+/+ KI mice without 5×FAD background (N=19-23/group), or with 5×FAD background (N=15-17/group) were placed in the stereotaxic apparatus with AAV2 or scramble virus administered into the dorsal CA1 regions of bilateral hippocampal brain regions using pressure injection (Labonte B et al., Nat Med 2017, and Passini M A et al., The Journal of neuroscience 2006). Injection volumes (0.5-2.0 μl) were delivered over 10 min to avoid tissue damage. Six to nine months after viral delivery, mice were tested with the NOR task (Zhu L et al., Proc Natl Acad Sci USA 2015, Elder G A et al., J Neurotrauma 2012, and Howlett D R et al., Brain Res 2004). Mice were randomized for genotype and sex, and blinded throughout the behavior data collection and analysis, surgical manipulations, and sample collection.

The subject of data set [2] is endogenous mouse Aβ40 or Aβ42. In words: endogenous brain Aβ40 / Aβ42 levels in ApoE KI mice after miR-195 over-expression. It counts as in vivo. As to conditions: ApoE4+/+ or ApoE3+/+ mouse brains. The procedure: (§1) Stereotaxic injection and behavior studies. Eight to nine weeks old male and female ApoE3^+/+ and ApoE4^+/+ KI mice without 5×FAD background (N=19-23/group), or with 5×FAD background (N=15-17/group) were placed in the stereotaxic apparatus with AAV2 or scramble virus administered into the dorsal CA1 regions of bilateral hippocampal brain regions using pressure injection (Labonte B et al., Nat Med 2017, and Passini M A et al., The Journal of neuroscience 2006). Injection volumes (0.5-2.0 μl) were delivered over 10 min to avoid tissue damage. […]
(§2) Brain and neuronal sample preparation and biochemical analysis. […] Levels of Aβ42, Aβ40, pTau, Tau and ApoE were determined using high-sensitive ELISA kits. […]
(§3) Statistical analysis. […] Levels of miR-195-5p and miR-374 were normalized to U6 and RNU6B (internal controls) while synj1 mRNA normalized to GAPDH and 18s, and then expressed as Log2fold of changes when compared to controls. Levels of synj1, dyn1, pTau, Tau, and holoAPP were normalized to β-actin levels and expressed as a percentage of the control. Absolute Aβ42, Aβ40, pTau, Tau, and ApoE concentrations were quantitatively determined by ELISA and expressed as a percentage of the control. […] Pearson correlation coefficients were calculated to determine the linear relationship between the two variables. […]

In data set [3] the test system is BV2 cells. In words: LPS-induced gene expression (pdcd4, smad7, il10a) in BV2 microglia with miR-195-5p over-expression. In kind it is cell-based. The procedure:
For example, LPS (at 0.2 μg/ml) treatment for overnight in BV2 cells leads to increased expression of pdcd4 and smad7 (FIG. 13A) and reduced expression of il10ra (FIG. 13C). […] Over-expression of miR-195-5p also attenuates LPS-induced pro-inflammatory cytokine release (IL-6 and TNFα; FIG. 13B). […] For these experiments, purified exosomes were derived from human APOE3/3 and 4/4 iPSC-derived astrocytes w/wo miR-195 over-expression detected by an exosome marker, ALIX. Fluorescence labeled exosomes were taken up by IBA1+ microglia cells.
Over-expression of miR-195-5p in microglia inhibits LPS-induced proinflammatory responses and augments anti-inflammatory responses. […] However, over-expression of miR-195-5p reduces expression levels of pdcd4 and smad7 and increases il10a expression in the presence of LPS. Over-expression of miR-195-5p also attenuates LPS-induced pro-inflammatory cytokine release (IL-6 and TNFα; FIG. 17B).

In data set [4] the test system is pTau, total Tau. In words: brain pTau and total Tau in EFAD mice after miR-195-5p over-expression. In kind it is in vivo. As to conditions: ApoE4+/+ FAD mouse hippocampus. The procedure:
as §1, §2, §3

Turning to “UAGCAGCACAGAAAUAUUGGC (chemistry not given here) [miR-195-5p, over-expressed via AAV2-containing miR-195-5p from ABM Inc]”, the NOR preference index in data set [1] (scramble controls 37.8%) is 63.1%. This sequence yielded an NOR discrimination index in data set [1] (scramble controls -0.245) of 0.262. Further, the “endogenous Aβ40 or Aβ42 levels” value in data set [2] is reported as “No significant changes”; in data set [2] (listed as miR-195) it was “no significant changes”. Moreover, the “expression levels of pdcd4 and smad7” value in data set [3] (LPS overnight) is on record as “dramatically reduces”. In addition, in data set [3] (in the presence of LPS), the il10a expression entry is listed as “increases”. The p-Tau result in data set [4] is on record as “reduction”.
